Results taken from PubChem BioAssay (NCI).
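Where inhibition never reached the appropriate level, the endpoint shown equals the highest concentration tested. Otherwise, values were interpolated linearly from a five-concentration, 48-hour dose response in 96-well plates. Abbreviation: GI50, concentration required for 50% inhibition of growth. TGI denotes the concentration required for complete inhibition of growth.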

Experiments:
Assay in all cases: DTP human tumour cell line panel, 48 h
[1] = system: K-562 leukemia
[2] = system: OVCAR-3 ovarian
[3] = system: SF-268 CNS
[4] = system: HCT-116 colon
[5] = system: PC-3 prostate
[6] = system: SK-OV-3 ovarian
[7] = system: SNB-19 CNS
[8] = system: M14 melanoma
[9] = system: MCF7 breast
[10] = system: OVCAR-8 ovarian
[11] = system: NCI-H460 lung
[12] = system: SK-MEL-5 melanoma
[13] = system: HOP-92 NSCLC
[14] = system: A549 NSCLC
[15] = system: SNB-75 CNS
[16] = system: 786-0 renal
[17] = system: DU-145 prostate
[18] = system: LOX IMVI melanoma
[19] = system: OVCAR-4 ovarian
[20] = system: TK-10 renal
[21] = system: SN12C renal
[22] = system: IGROV1 ovarian
[23] = system: SK-MEL-28 melanoma
[24] = system: A498 renal
[25] = system: NCI/ADR-RES ovarian
[26] = system: SF-539 CNS
[27] = system: HCC-2998 colon
[28] = system: HCT-15 colon
[29] = system: RPMI-8226 leukemia
[30] = system: OVCAR-5 ovarian
[31] = system: KM12 colon
[32] = system: HOP-62 NSCLC
[33] = system: CAKI-1 renal
[34] = system: T-47D breast
[35] = system: COLO 205 colon
[36] = system: SK-MEL-2 melanoma
[37] = system: HT29 colon
[38] = system: CCRF-CEM leukemia
[39] = system: MOLT-4 leukemia
[40] = system: MDA-MB-231 breast
[41] = system: NCI-H522 lung
[42] = system: NCI-H23 lung
[43] = system: MDA-MB-435
[44] = system: SW-620 colon
[45] = system: U251 CNS
[46] = system: NCI-H226 lung
[47] = system: UO-31 renal
[48] = system: SF-295 CNS
[49] = system: EKVX NSCLC
[50] = system: HS 578T breast
[51] = system: ACHN renal
[52] = system: UACC-257 melanoma
[53] = system: UACC-62 melanoma
[54] = system: MALME-3M melanoma

Question: What does the source list for `COc1cc2c(cc1OCCCCC(=O)Nc1cc3c4ccccc4ccc3c3ccccc13)N=C[C@@H]1CCCN1C2=O`?
Answer: GI50 [1]: 1.55 µM; TGI [1]: > 38.9 µM; GI50 [2]: 3.02 µM; TGI [2]: 10.1 µM; GI50 [3]: 2.67 µM; TGI [3]: 15 µM; GI50 [4]: 25.1 µM; TGI [4]: 88.8 µM; GI50 [5]: 5.4 µM; TGI [5]: > 65.9 µM; GI50 [6]: 34.3 µM; TGI [6]: > 100 µM; GI50 [7]: 11.3 µM; TGI [7]: > 61.7 µM; GI50 [8]: 8.1 µM; TGI [8]: 33 µM; GI50 [9]: 3.45 µM; TGI [9]: 34.1 µM; GI50 [10]: 7.27 µM; TGI [10]: 20 µM; GI50 [11]: 5.33 µM; TGI [11]: 51.5 µM; GI50 [12]: 2.93 µM; TGI [12]: 7.61 µM; GI50 [13]: 1.45 µM; TGI [13]: > 20.9 µM; GI50 [14]: 27.1 µM; TGI [14]: 61.3 µM; GI50 [15]: 19 µM; TGI [15]: > 52.9 µM; GI50 [16]: 7.21 µM; TGI [16]: 18.8 µM; GI50 [17]: 2.84 µM; TGI [17]: 14.1 µM; GI50 [18]: 32.1 µM; TGI [18]: > 100 µM; GI50 [19]: 5.16 µM; TGI [19]: 22.8 µM; GI50 [20]: 2.33 µM; TGI [20]: 5.73 µM; GI50 [21]: 22.6 µM; TGI [21]: 89.3 µM; GI50 [22]: 2.11 µM; TGI [22]: > 25.6 µM; GI50 [23]: 3.41 µM; TGI [23]: 12.2 µM; GI50 [24]: 2.9 µM; TGI [24]: 9.38 µM; GI50 [25]: 32.2 µM; TGI [25]: > 85.7 µM; GI50 [26]: 2.22 µM; TGI [26]: 9.06 µM; GI50 [27]: 10.9 µM; TGI [27]: 33.5 µM; GI50 [28]: 12.5 µM; TGI [28]: > 52.6 µM; GI50 [29]: 1.11 µM; GI50 [30]: 11.5 µM; TGI [30]: 52.8 µM; GI50 [31]: 3.87 µM; TGI [31]: 18.5 µM; GI50 [32]: 10.1 µM; TGI [32]: 40.8 µM; GI50 [33]: 3.44 µM; TGI [33]: 13.1 µM; GI50 [34]: 11.1 µM; TGI [34]: > 100 µM; GI50 [35]: 7.65 µM; TGI [35]: > 100 µM; GI50 [36]: 8.4 µM; TGI [36]: 58.8 µM; GI50 [37]: 5.86 µM; TGI [37]: > 76.2 µM; GI50 [38]: 1.55 µM; TGI [38]: > 100 µM; GI50 [39]: 4.62 µM; TGI [39]: > 100 µM; GI50 [40]: 1.06 µM; TGI [40]: 17 µM; GI50 [41]: 4.25 µM; TGI [41]: > 100 µM; GI50 [42]: 20 µM; TGI [42]: 47.5 µM; GI50 [43]: 5.44 µM; TGI [43]: > 92.9 µM; GI50 [44]: 3.68 µM; TGI [44]: > 100 µM; GI50 [45]: 8.02 µM; TGI [45]: > 100 µM; GI50 [46]: 0.665 µM; TGI [46]: 10.8 µM; GI50 [47]: 1.22 µM; GI50 [48]: 6.98 µM; TGI [48]: 63.1 µM; GI50 [49]: 17.3 µM; TGI [49]: 64.2 µM; GI50 [50]: 17.7 µM; TGI [50]: > 100 µM; GI50 [51]: 38.8 µM; TGI [51]: > 100 µM; GI50 [52]: 7.77 µM; TGI [52]: 18.4 µM; GI50 [53]: 0.658 µM; TGI [53]: 8.24 µM; GI50 [54]: 3.85 µM; TGI [54]: 16 µM
